# Patent US10544112B2, “Identification of ebsulfur analogues with broad-spectrum antifungal activity” (priority 2017, dated 2020)
# What was measured:
# [1] = system: Murine red blood cells (mRBCs); assay: Hemolytic assay
# Method: Hemolytic activity was determined as previously described with minor modifications (FIG. 3). […] Compounds were serially diluted in Eppendorf tubes containing H2O (100 μL). […] The tubes were then incubated for 1 h at 37° C. Tubes containing dd H2O (200 μL) and triton X-100® (1% v/v, 2 μt) served as negative (blank) and positive (100%) control, respectively. The percent hemolysis was calculated using the following equation: % hemolysis=[(absorbance of sample)−(absorbance of blank)]×100/(absorbance of positive control). Fifty percent hemolysis (HC50) values were defined as the concentrations of compounds required to lyse 50% of the mRBCs.
# [2] = system: C. albicans ATCC 10231 (strain A); assay: ROS production assay (DCFH-DA); assay type: cell-based, Candida albicans; conditions: 1× and 2× MIC (H2O2 1 mM), 1-h treatment
# Method: ROS production assay was performed as previously described with minor modifications. […] Once entering the cells, the DCFH-DA probe is first hydrolyzed to the non-fluorescent 2′,7′-dichlorodihydrofluorescein (DCFH) by cellular esterases. […] A colony of C. albicans ATCC 10231 (strain A) was used to inoculate 5 mL of PDB in a Falcon tube and grown overnight at 35° C. at 200 rpm.
# Thus, whether the compounds of the invention would also induce ROS against C. albicans was studied. […] 2′,7′-dichlorodihydrofluorescin diacetate (DCFH-DA) was then used to detect and visualize ROS production (FIG. 5). As a positive control, cells were treated with H2O2, which is an inducer of hydroxyl radical formation.
smiles,measurement,setting,value
CCCCCn1sc2ccccc2c1=O [Compound 3a],fold MIC lower than the hemolytic concentration,[1]; Aspergillus strains,≥ 195 fold
same,fold MIC lower than the hemolytic concentration,[1]; Candida strains,at least 5 fold
same,hemolytic concentration,"[1]; mRBCs, 1 h at 37° C.",approximately 3.9 μg/mL
same,ROS induction (DCFH-DA fluorescence),[2],highly fluorescent
